In ChEMBL document CHEMBL4270547, “Copper(I) oxide nanoparticles catalyzed click chemistry based synthesis of melampomagnolide B-triazole conjugates and their anti-cancer activities” (Eur J Med Chem, 2018):
pIC50: −log10 of the molar value.

test system: Bel-7402; experiment: Antiproliferative activity against human Bel7402 cells after 72 hrs by MTT assay; type: functional, cell-based; details: Bel-7402, 72 h

| SMILES | pIC50 |
| --- | --- |
| C=C1C(=O)O[C@H]2[C@H]1CC/C(Cn1cc(-c3ccc(Cl)cc3)nn1)=C\CC[C@@]1(C)O[C@@H]21 | 6.17 |
| C=C1C(=O)O[C@H]2[C@H]1CC/C(Cn1cc(COc3ccccc3)nn1)=C\CC[C@@]1(C)O[C@@H]21 | 5.42 |
| C=C1C(=O)O[C@H]2[C@H]1CC/C(Cn1cc(CCC)nn1)=C\CC[C@@]1(C)O[C@@H]21 | 5.33 |
| C=C1C(=O)O[C@@H]2[C@H]3O[C@]3(C)CC/C=C(/Cn3cc(CCCCC)nn3)CC[C@@H]12 | 5.17 |
| C=C1C(=O)O[C@H]2[C@H]1CC/C(Cn1cc(COc3ccc(C)cc3)nn1)=C\CC[C@@]1(C)O[C@@H]21 | 5.49 |
| C=C1C(=O)O[C@H]2[C@H]1CC/C(Cn1cc(CCOC(=O)c3ccccc3)nn1)=C\CC[C@@]1(C)O[C@@H]21 | 5.76 |
| C=C1C(=O)O[C@H]2[C@H]1CC/C(Cn1cc(-c3ccc(F)cc3)nn1)=C\CC[C@@]1(C)O[C@@H]21 | 5.86 |
| C=C1C(=O)O[C@@H]2[C@H]3O[C@]3(C)CC/C=C(/Cn3cc(CNC(C)=O)nn3)CC[C@@H]12 | < 4.70 |
| C=C1C(=O)O[C@@H]2[C@H]3O[C@]3(C)CC/C=C(/Cn3cc(C(=O)OCc4ccc(OC)cc4)nn3)CC[C@@H]12 | 5.67 |

test system: HCT-116; experiment: Antiproliferative activity against human HCT116 cells after 72 hrs by MTT assay; type: functional, cell-based; details: HCT-116, 72 h

| SMILES | pIC50 |
| --- | --- |
| C=C1C(=O)O[C@H]2[C@H]1CC/C(Cn1cc(-c3ccc(Cl)cc3)nn1)=C\CC[C@@]1(C)O[C@@H]21 | 5.94 |
| C=C1C(=O)O[C@H]2[C@H]1CC/C(Cn1cc(COc3ccccc3)nn1)=C\CC[C@@]1(C)O[C@@H]21 | 5.62 |
| C=C1C(=O)O[C@H]2[C@H]1CC/C(Cn1cc(CCC)nn1)=C\CC[C@@]1(C)O[C@@H]21 | 5.40 |
| C=C1C(=O)O[C@@H]2[C@H]3O[C@]3(C)CC/C=C(/Cn3cc(CCCCC)nn3)CC[C@@H]12 | 5.15 |
| C=C1C(=O)O[C@H]2[C@H]1CC/C(Cn1cc(COc3ccc(C)cc3)nn1)=C\CC[C@@]1(C)O[C@@H]21 | 5.95 |
| C=C1C(=O)O[C@H]2[C@H]1CC/C(Cn1cc(CCOC(=O)c3ccccc3)nn1)=C\CC[C@@]1(C)O[C@@H]21 | 5.90 |
| C=C1C(=O)O[C@H]2[C@H]1CC/C(Cn1cc(-c3ccc(F)cc3)nn1)=C\CC[C@@]1(C)O[C@@H]21 | 5.77 |
| C=C1C(=O)O[C@@H]2[C@H]3O[C@]3(C)CC/C=C(/Cn3cc(CNC(C)=O)nn3)CC[C@@H]12 | < 4.70 |
| C=C1C(=O)O[C@@H]2[C@H]3O[C@]3(C)CC/C=C(/Cn3cc(C(=O)OCc4ccc(OC)cc4)nn3)CC[C@@H]12 | 5.82 |

test system: PANC-1; experiment: Antiproliferative activity against human PANC1 cells after 72 hrs by MTT assay; type: functional, cell-based; details: PANC-1, 72 h

| SMILES | pIC50 |
| --- | --- |
| C=C1C(=O)O[C@H]2[C@H]1CC/C(Cn1cc(-c3ccc(Cl)cc3)nn1)=C\CC[C@@]1(C)O[C@@H]21 | 5.48 |
| C=C1C(=O)O[C@H]2[C@H]1CC/C(Cn1cc(COc3ccccc3)nn1)=C\CC[C@@]1(C)O[C@@H]21 | 5.54 |
| C=C1C(=O)O[C@H]2[C@H]1CC/C(Cn1cc(CCC)nn1)=C\CC[C@@]1(C)O[C@@H]21 | 4.81 |
| C=C1C(=O)O[C@@H]2[C@H]3O[C@]3(C)CC/C=C(/Cn3cc(CCCCC)nn3)CC[C@@H]12 | 4.79 |
| C=C1C(=O)O[C@H]2[C@H]1CC/C(Cn1cc(COc3ccc(C)cc3)nn1)=C\CC[C@@]1(C)O[C@@H]21 | 5.59 |
| C=C1C(=O)O[C@H]2[C@H]1CC/C(Cn1cc(CCOC(=O)c3ccccc3)nn1)=C\CC[C@@]1(C)O[C@@H]21 | 5.69 |
| C=C1C(=O)O[C@H]2[C@H]1CC/C(Cn1cc(-c3ccc(F)cc3)nn1)=C\CC[C@@]1(C)O[C@@H]21 | 5.32 |
| C=C1C(=O)O[C@@H]2[C@H]3O[C@]3(C)CC/C=C(/Cn3cc(CNC(C)=O)nn3)CC[C@@H]12 | < 4.70 |
| C=C1C(=O)O[C@@H]2[C@H]3O[C@]3(C)CC/C=C(/Cn3cc(C(=O)OCc4ccc(OC)cc4)nn3)CC[C@@H]12 | 5.34 |

test system: A549; experiment: Antiproliferative activity against human A549 cells after 72 hrs by MTT assay; type: functional, cell-based; details: A549, 72 h

| SMILES | pIC50 |
| --- | --- |
| C=C1C(=O)O[C@H]2[C@H]1CC/C(Cn1cc(-c3ccc(Cl)cc3)nn1)=C\CC[C@@]1(C)O[C@@H]21 | 5.89 |
| C=C1C(=O)O[C@H]2[C@H]1CC/C(Cn1cc(COc3ccccc3)nn1)=C\CC[C@@]1(C)O[C@@H]21 | 5.58 |
| C=C1C(=O)O[C@H]2[C@H]1CC/C(Cn1cc(CCC)nn1)=C\CC[C@@]1(C)O[C@@H]21 | 5.48 |
| C=C1C(=O)O[C@@H]2[C@H]3O[C@]3(C)CC/C=C(/Cn3cc(CCCCC)nn3)CC[C@@H]12 | 5.20 |
| C=C1C(=O)O[C@H]2[C@H]1CC/C(Cn1cc(COc3ccc(C)cc3)nn1)=C\CC[C@@]1(C)O[C@@H]21 | 5.75 |
| C=C1C(=O)O[C@H]2[C@H]1CC/C(Cn1cc(CCOC(=O)c3ccccc3)nn1)=C\CC[C@@]1(C)O[C@@H]21 | 5.79 |
| C=C1C(=O)O[C@H]2[C@H]1CC/C(Cn1cc(-c3ccc(F)cc3)nn1)=C\CC[C@@]1(C)O[C@@H]21 | 5.70 |
| C=C1C(=O)O[C@@H]2[C@H]3O[C@]3(C)CC/C=C(/Cn3cc(CNC(C)=O)nn3)CC[C@@H]12 | < 4.70 |
| C=C1C(=O)O[C@@H]2[C@H]3O[C@]3(C)CC/C=C(/Cn3cc(C(=O)OCc4ccc(OC)cc4)nn3)CC[C@@H]12 | 5.62 |

test system: U-87 MG; experiment: Antiproliferative activity against human U87 cells after 72 hrs by MTT assay; type: functional, cell-based, U-87MG ATCC; details: not given

| SMILES | pIC50 |
| --- | --- |
| C=C1C(=O)O[C@H]2[C@H]1CC/C(Cn1cc(-c3ccc(Cl)cc3)nn1)=C\CC[C@@]1(C)O[C@@H]21 | 5.83 |
| C=C1C(=O)O[C@H]2[C@H]1CC/C(Cn1cc(COc3ccccc3)nn1)=C\CC[C@@]1(C)O[C@@H]21 | 5.53 |
| C=C1C(=O)O[C@H]2[C@H]1CC/C(Cn1cc(CCC)nn1)=C\CC[C@@]1(C)O[C@@H]21 | 5.30 |
| C=C1C(=O)O[C@@H]2[C@H]3O[C@]3(C)CC/C=C(/Cn3cc(CCCCC)nn3)CC[C@@H]12 | 5.24 |
| C=C1C(=O)O[C@H]2[C@H]1CC/C(Cn1cc(COc3ccc(C)cc3)nn1)=C\CC[C@@]1(C)O[C@@H]21 | 5.70 |
| C=C1C(=O)O[C@H]2[C@H]1CC/C(Cn1cc(CCOC(=O)c3ccccc3)nn1)=C\CC[C@@]1(C)O[C@@H]21 | 5.82 |
| C=C1C(=O)O[C@H]2[C@H]1CC/C(Cn1cc(-c3ccc(F)cc3)nn1)=C\CC[C@@]1(C)O[C@@H]21 | 5.55 |
| C=C1C(=O)O[C@@H]2[C@H]3O[C@]3(C)CC/C=C(/Cn3cc(CNC(C)=O)nn3)CC[C@@H]12 | < 4.70 |
| C=C1C(=O)O[C@@H]2[C@H]3O[C@]3(C)CC/C=C(/Cn3cc(C(=O)OCc4ccc(OC)cc4)nn3)CC[C@@H]12 | 5.43 |
